Where “and” joins values, the source holds several entries; their conditions need not be identical. Equal values may be shown once.
Experiments:
Escherichia coli NIHJ = assay: Minimum inhibitory concentration on nutrient agar plates, 37° C., 17 hours; type: cell-based
Escherichia coli W677 = assay: as above; type: cell-based
[1] = tested on: Staphylococcus aureus 209P; assay: as above; type: cell-based
[2] = tested on: Staphylococcus aureus Smith; assay: as above; type: cell-based
Xanthomonas citri = assay: as above; type: cell-based
[3] = tested on: Escherichia coli JR66/W677; assay: as above; type: cell-based
Xanthomonas oryzae = type: cell-based; conditions: 37° C., 17 hours
Candida albicans 3147 = assay: Minimum inhibitory concentration on nutrient agar plates with 1% glucose, 27° C., 40 hours; type: cell-based
[4] = tested on: Bacillus subtilis PCI 219; assay: Minimum inhibitory concentration on nutrient agar plates, 37° C., 17 hours; type: cell-based
[5] = tested on: Pseudomonas aeruginosa No. 12; assay: as above; type: cell-based
[6] = Stability of activity in 50% aqueous ethanol, room temperature, 16 hours; storage and methanol stability; conditions: for stability in 50% aqueous ethanol: 50% aqueous ethanol of pH 2.5; for activity reduced to: 50% aqueous ethanol of pH 2.5, room temperature, 16 hours; for stability as solid powder: cold and dark place
[7] = tested on: Aeromonas salmonecida ATCC 14174; assay: Minimum inhibitory concentration on nutrient agar plates, 37° C., 17 hours; type: cell-based
[8] = tested on: Vibrio anguillarum NCBM 6; assay: as above; type: cell-based
Saccharomyces cerevisiae = assay: Minimum inhibitory concentration on nutrient agar plates with 1% glucose, 27° C., 40 hours; type: cell-based
[9] = tested on: various bacteria and fungi; assay: Antibacterial and antifungal spectrum (overall); type: cell-based
[10] = tested on: Klebsiella pneumoniae PCI 602; assay: Minimum inhibitory concentration on nutrient agar plates, 37° C., 17 hours; type: cell-based
[11] = tested on: Staphylococcus aureus or Escherichia coli; assay: Standard cup-plate assay of potency
leukemia L-1210 cells = assay: Chemotherapeutic effect against leukemia L-1210 in mice (survival); type: in vivo, mice (CDF 1 strain); conditions: i.p. once daily for 10 days
Piricularia oryzae = type: cell-based
Escherichia coli K-12 = assay: Minimum inhibitory concentration on nutrient agar plates, 37° C., 17 hours; type: cell-based
[12] = Partition between n-butanol and water; conditions: pH value of 2 to 7
[13] = Acute toxicity, intraperitoneal injection in mice; conditions: for toxicity: animal and man, as shown by LD50 in mice; for LD50: mice, intraperitoneal, 0.25-0.5% in 10% dimethylsulfoxide-water
Aspergillus niger = assay: Minimum inhibitory concentration on nutrient agar plates with 1% glucose, 27° C., 40 hours; type: cell-based
[14] = isolated colorless powder (Examples 3-6)

Structure (SMILES)	Minimum Inhibitory Concentration (Escherichia coli NIHJ) [Mcg./ml.]	Minimum Inhibitory Concentration (Escherichia coli W677) [Mcg./ml.]	Minimum Inhibitory Concentration [1] [Mcg./ml.]	Minimum Inhibitory Concentration [2] [Mcg./ml.]	Minimum Inhibitory Concentration (Xanthomonas citri) [Mcg./ml.]	Minimum Inhibitory Concentration [3] [Mcg./ml.]	Minimum Inhibitory Concentration (Xanthomonas oryzae) [Mcg./ml.]	Minimum Inhibitory Concentration (Candida albicans 3147) [Mcg./ml.]	Minimum Inhibitory Concentration [4] [Mcg./ml.]	Minimum Inhibitory Concentration [5] [Mcg./ml.]	stability in 50% aqueous ethanol [6]	activity reduced to [6] [%]	stability as solid powder [6]	Minimum Inhibitory Concentration [7] [Mcg./ml.]	Minimum Inhibitory Concentration [8] [Mcg./ml.]	Minimum Inhibitory Concentration (Saccharomyces cerevisiae) [Mcg./ml.]	antibacterial and antifungal activity [9]	Minimum Inhibitory Concentration [10] [Mcg./ml.]	potency [11, 14]	effects on the survival ratio (leukemia L-1210 cells)	other results
COc1cc2c(cc1O)N=C[C@@H]1CC[C@@H](O)N1C2=O [neothramycin B]	100	100	> 100	100	> 100	> 100	100	> 100	> 100	> 100	unstable	22	stable for a long period of time	50	100	> 100	low antibacterial and antifungal activity	100	620 u./mg. and 835 u./mg.	highly favorable effects	Minimum Inhibitory Concentration (Piricularia oryzae): > 100 Mcg./ml.; Minimum Inhibitory Concentration (Escherichia coli K-12): 100 Mcg./ml.; partition coefficient in n-butanol/water [12]: greater than 5; toxicity [13]: low toxicity; LD50 [13]: 20 to 30 mg/kg; Minimum Inhibitory Concentration (Aspergillus niger): > 100 Mcg./ml.
COc1cc2c(cc1O)N=C[C@@H]1CC[C@H](O)N1C2=O [neothramycin A]	100	50	> 100	50	> 100	100	50	> 100	100	> 100	unstable	25	stable for a long period of time	25	50	50	low antibacterial and antifungal activity	50	1000 u./mg.	highly favorable effects	potency ([11]; pure neothramycin A from Example 3 as authentic sample): 1000 units per mg; Minimum Inhibitory Concentration (Piricularia oryzae): 50 Mcg./ml.; Minimum Inhibitory Concentration (Escherichia coli K-12): 100 Mcg./ml.; partition coefficient in n-butanol/water [12]: greater than 5; toxicity [13]: low toxicity; LD50 [13]: 20 to 30 mg/kg; Minimum Inhibitory Concentration (Aspergillus niger): 100 Mcg./ml.
